Legend:
COV362 = experiment: Short-term growth assay (CellTiter-Glo cell viability), kinase inhibitors; assay type: cell-based, human; conditions: increasing concentrations, Cell Titer Glo
Method: Cell viability was determined by Cell Titer Glo analysis.
COV362 cells were treated with increasing concentrations of A-674563 and cell viability assessed by Cell Titer Glo according to manufacturer's instructions. Data represent the mean of six replicates.
To explore the therapeutic potential of the HGSOC kinome signature, a detailed molecular analysis of protein levels/activity, growth and survival functions was carried out in a panel of recently validated HGSOC cell lines (Coscia et al., Nat. Commun., 2016, 7, 12645) that harbor commonly encountered HGSOC mutations and genetic rearrangements (see, FIG. 5A).
For short-term growth assays, 3000-5000 cells were plated per well in 96-well plates and allowed to adhere and equilibrate overnight. Drug was added the following morning and after 120 hours of drug treatment, cell viability was assessed using the CellTiter-Glo Luminescent cell viability assay according to manufacturer (Promega). Students t tests were performed for statistical analyses and p values ≤0.05 were considered significant. For colony formation assays, cells were plated in 24-well dishes (3000-5000 cells per well) and incubated overnight before continuous drug treatment for 14 days, with drug and media replaced twice weekly. At the end of treatment, cells were rinsed with PBS and fixed with chilled methanol for 10 minutes at −20° C. Methanol was removed by aspiration, and cells were stained with 0.5% crystal violet in 20% methanol for 20 minutes at room temperature, washed with distilled water, and scanned.

CLK2 = target: T1, CLK2 (Homo sapiens, UniProt P49760); experiment: MIB/MS kinome profiling of inhibitor-treated OVSAHO cells; assay type: cell-based; conditions: 2 μM, 4 hours
T1 construct: endogenous in cells; host or cells: OVSAHO
Method: (§1) OVSAHO cells were treated with 2 μM of inhibitor for 4 hours and analyzed by MIB/MS. Scatterplot depicts difference in kinase MIB-binding of drug treated relative to control DMSO as determined by Students T-test.
(§2) MIB-based kinome profiling was performed on several of these molecules in HGSOC cells to determine kinome-wide inhibition profiles.
(§3) Experiments using MIB/MS were performed as previously described (Duncan et al., Cell, 2012, 149, 307-321; and Kurimchak et al., Cell Reports, 2016, 16, 1273-1286). Briefly, cells or tumors were lysed on ice in buffer containing 50 mM HEPES (pH 7.5), 0.5% Triton X-100, 150 mM NaCl, 1 mM EDTA, 1 mM EGTA, 10 mM sodium fluoride, 2.5 mM sodium orthovanadate, 1× protease inhibitor cocktail (Roche), and 1% each of phosphatase inhibitor cocktails 2 and 3 (Sigma). Particulate was removed by centrifugation of lysates at 13,000 rpm for 10 minutes at 4° C. and filtration through 0.2 μm syringe filters. Protein concentrations were determined by BCA analysis (Thermo). To compare kinome signatures within and across such large sample sizes, a super-SILAC method was designed (Neubert et al., Nat. Meth., 2010, 7, 361-362) consisting of a cocktail of cancer cell lines that encompasses the activity of the “cancer kinome” to be used as a control for individual samples. Five cancer cell lines were selected from the NCI-60 panel (UACC257, MOLT4, COL0205, ACHN and PC3) that differed in their origin, gene expression patterns and mutation status. The cancer cell lines were labeled using SILAC and mixed equally providing a diverse SILAC ([^13C6,^15N4] arginine (Arg^10) and […] (Lys^8)) heavy kinome reference standard (HKS) to be used repeatedly in kinome profiling assays. An equal amount of the HKS was added to the non-labeled sample (cell, tumor or normal tissue) providing a quantitative strategy to compare kinome activity/levels across samples, amongst treatments and, importantly, across time. Endogenous kinases were isolated by flowing lysates over kinase inhibitor-conjugated Sepharose beads (purvalanol B, VI16832, PP58 and CTx-0294885 beads were used) in 10 ml gravity-flow columns. After 2×10 ml column washes in high-salt buffer and 1×10 ml wash in low-salt buffer (containing 50 mM HEPES (pH 7.5), 0.5% Triton X-100, 1 mM EDTA, 1 mM EGTA, and 10 mM sodium fluoride, and 1M NaCl or 150 mM NaCl, respectively), retained kinases were eluted from the column by boiling in 2×500 μL of 0.5% SDS, 0.1 M TrisHCl (pH 6.8), and 1% 2-mercaptoethanol. Eluted peptides were reduced by incubation with 5 mM DTT at 60° C. for 25 minutes, alkylated with 20 mM iodoacetamide at room temperature for 30 minutes in the dark and alkylation was quenched with DTT. Samples were concentrated to approximately 100 μL with Millipore 10 kD cutoff spin concentrators. Detergent was removed by chloroform/methanol extraction, and the protein pellet was resuspended in 100 mM ammonium bicarbonate and digested with sequencing-grade modified trypsin (Promega) overnight at 37° C. […]
(§4) Proteolytic peptides were resuspended in 0.1% formic acid and separated with a Thermo RSLC Ultimate 3000 on a Thermo Easy-Spray C18 PepMap 75 μm×50 cm C-18 2 μm column with a 240 minute gradient of 4-25% acetonitrile with 0.1% formic acid at 300 nL/min and 50° C. Eluted peptides were analyzed by a Thermo Q Exactive plus mass spectrometer utilizing a top 15 methodology in which the 15 most intense peptide precursor ions were subjected to fragmentation. […]

PRCKD = target: T2, PRCKD (Homo sapiens, UniProt Q05655); experiment: as above; assay type: cell-based; conditions: 2 μM, 4 hours
T2 construct: endogenous in cells; host or cells: OVSAHO
Method: as §1, §2, §3, §4

HGSOC cells = experiment: Apoptosis in inhibitor-treated HGSOC cells; assay type: cell-based, human; conditions: increasing doses
COV362 cells = experiment: Migration assay (xCELLigence RTCA); assay type: cell-based, human; conditions: 1 μM, 24 hour period
Method: COV362 cells were treated with 1 μM of A-674563 or DMSO and migration monitored over a 24 hour period using the xCELLigence Real-Time Cell Analyzer (RTCA).
Cell migration assays were performed using the xCELLigence RTCA DP Instrument (ACEA Biosciences) in a CIM-Plate 16 (ACEA Biosciences). Complete medium was added to the lower chambers of the CIM-Plate (or serum free medium for negative control). In the upper chambers, 30 μL serum free medium was added to each well and the CIM-Plate was placed in the instrument to equilibrate for 1 hr at 37° C. Following this equilibration step, a background measurement was taken. The CIM-Plate was removed from the instrument, and COV362 cells were added to the upper chambers at 50,000 cells per well in serum free medium. The CIM-Plate was left at 25° C. for 30 minutes to allow the cells to settle at the bottom of the well. The plate was then returned to the instrument, and cell index reads were taken once every 15 minutes for 24 hours. For the siRNA experiment, the cells were transfected 24 hours prior to the start of the assay. For the A-674563 experiment, cells were pretreated with 1 μM inhibitor or DMSO 24 hours prior, and both upper and lower chambers contained 1 μM inhibitor or DMSO.

T1 sequence (P49760 whole entry): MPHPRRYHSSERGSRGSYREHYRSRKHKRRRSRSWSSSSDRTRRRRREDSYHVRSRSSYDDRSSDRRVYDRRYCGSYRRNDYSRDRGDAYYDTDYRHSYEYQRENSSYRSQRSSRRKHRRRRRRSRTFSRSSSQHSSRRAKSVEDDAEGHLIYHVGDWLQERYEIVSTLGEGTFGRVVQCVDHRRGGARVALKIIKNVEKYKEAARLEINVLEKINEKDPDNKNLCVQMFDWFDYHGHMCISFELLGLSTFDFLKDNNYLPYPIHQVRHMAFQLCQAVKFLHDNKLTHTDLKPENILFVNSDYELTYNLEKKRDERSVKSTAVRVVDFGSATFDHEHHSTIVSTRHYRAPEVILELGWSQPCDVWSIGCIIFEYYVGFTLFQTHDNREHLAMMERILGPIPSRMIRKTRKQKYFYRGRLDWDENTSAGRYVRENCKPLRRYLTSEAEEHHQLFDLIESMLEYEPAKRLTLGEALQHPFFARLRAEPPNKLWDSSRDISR
T2 sequence (Q05655 whole entry): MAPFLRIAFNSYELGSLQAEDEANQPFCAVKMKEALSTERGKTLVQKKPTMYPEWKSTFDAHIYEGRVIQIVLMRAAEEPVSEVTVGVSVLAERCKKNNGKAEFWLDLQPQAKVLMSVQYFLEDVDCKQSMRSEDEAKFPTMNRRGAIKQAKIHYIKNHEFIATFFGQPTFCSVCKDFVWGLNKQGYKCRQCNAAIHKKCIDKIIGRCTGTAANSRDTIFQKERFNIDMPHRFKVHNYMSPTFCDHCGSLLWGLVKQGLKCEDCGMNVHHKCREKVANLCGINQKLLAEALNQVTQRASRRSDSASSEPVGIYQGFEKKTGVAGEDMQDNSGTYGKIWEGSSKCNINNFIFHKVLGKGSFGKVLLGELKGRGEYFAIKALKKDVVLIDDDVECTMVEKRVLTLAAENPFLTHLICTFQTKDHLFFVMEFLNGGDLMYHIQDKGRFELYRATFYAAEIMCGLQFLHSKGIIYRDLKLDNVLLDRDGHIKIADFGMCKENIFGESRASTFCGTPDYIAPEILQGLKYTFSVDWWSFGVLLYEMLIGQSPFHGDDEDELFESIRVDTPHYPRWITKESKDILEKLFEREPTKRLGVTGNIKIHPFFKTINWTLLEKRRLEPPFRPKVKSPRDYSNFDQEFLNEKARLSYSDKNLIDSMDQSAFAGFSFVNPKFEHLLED

For Cc1[nH]nc2ccc(-c3cncc(OC[C@@H](N)Cc4ccccc4)c3)cc12 [A-674563], the cell viability (COV362) was “inhibited cell viability”, the “MIB-binding of CLK2” value (CLK2) was “inhibited” and the “MIB-binding of PRCKD” value (PRCKD) was “inhibited”. The apoptosis (HGSOC cells) was “induced apoptosis” and the cell migration (COV362 cells) was “reduced cell migration”.
